Peptide text beside a SMILES is read from it. * marks the point of attachment. 5FAM = O=C1OC2(c3ccc(O)cc3Oc3cc(O)ccc32)c2ccc(C(=O)*)cc21

Results on five molecules are retold here after paper PMC12595476, “FibrilPaint to determine the length of Tau amyloids in fluids” (Proceedings of the National Academy of Sciences of the …, 2025).

In data set [1] the target is T1, TauRD monomers (Homo sapiens, UniProt P10636, DEL597-597).
T1 construct: We used Tau Repeat Domain (Q244-E372, TauRD) with the proaggregation mutation ΔK280; made in house; host or cells: E. coli BL21 Rosetta 2
Description: Monolith (MST / spectral shift) binding to TauRD monomers. As to conditions: 50 nM FibrilPaint1, 37 °C, N = 3, unit inferred. Here is the method:
(§1) We confirmed that FibrilPaint1 binds specifically TauRD fibrils and not monomers by assessing binding affinity with monolith spectral shift analysis (Fig. 1 D and E). […] Since many monomers are needed to form one fibril, true affinity lies higher.
(§2) FibrilPaint1 (50 nM) was titrated with TauRD monomer or fibrils (0.5 nM to 10 µM) at 37 °C (Monolith NT.115); binding was extracted from the 5 s MST response.
(§3) Aragonès Pedrola, Dekker, et al. August 2025 FibrilPaint
(§4) FibrilRuler Test: Size measurement with Flow Induced Dispersion […]
(§5) Flow Induced Dispersion Analysis (FIDA) was used to determine fibril size. The FIDA experiments were performed using a FIDA1 with a 480 nm excitation source. […]
(§6) Data points were analysed using FIDAbio software, version 2.7. […]
(§7) Binding between FibrilPaint1 and TauRD monomers and fibrils was analyzed using Monolith (NanoTemper Technologies) Microscale thermophoresis system (MST). Thermophoresis was monitored at a concentration of 50 nM of FibrilPaint1 and a dilution series of the sample of interest, in 25 mM HEPES-KOH pH 7.5, 75 mM KCl, 75 mM NaCl. […]
(§8) Using equation 1, where L is the length and R the radius of the analysed particle, the mean length of the fibrils as function of Rh can be calculated.
(§9) As a model, PHF Fibril layers were stacked on top of each other using PyMOL software. […] Resulting structures were analysed for their Rh using FIDAbio hydrodynamic radii predictor.

For data set [2], the target named is T2, TauRD fibrils (Homo sapiens, UniProt P10636, DEL597-597).
T2 construct: We used Tau Repeat Domain (Q244-E372, TauRD) with the proaggregation mutation ΔK280; made in house; host or cells: E. coli BL21 Rosetta 2
Description: Monolith (MST / spectral shift) binding to TauRD fibrils. As to conditions: based on monomer concentration; 50 nM FibrilPaint1, TauRD fibrils 0.5 nM to 10 µM, pH 7.5, 37 °C; N = 3. How it is done: as §1, §2, §3, §4, §5, §6, §7, §8, §9

Data set [3] concerns TauRD (Tau Repeat Domain Q244-E372, ΔK280). Put plainly: ThT assay of TauRD aggregation with titrated FibrilPaint peptides (ThT inhibition). The class given is biochemical, human. As to conditions: for ThT end-plateau / emitted ThT signal: 20 μM TauRD, 5 µM heparin, 45 µM ThT, peptide 2, 0.2, 0.02 µM, pH 7.4, 37 °C, triplicates, N = 3; for Tht inhibition: Yes/No, Suppl. Table S1. The text has this:
We used Tau Repeat Domain (Q244-E372, TauRD) with the proaggregation mutation ΔK280 as a model for screening our FibrilPaint compounds. We performed a Thioflavin T (ThT) assay. ThT is an amyloid dye and provides a semiqualitative method used for the identification of amyloid structures in vitro and histology staining ([32], [33], [38]). A ThT assay is an established method to monitor protein fibrils formation, in which the fluorescent dye ThT emits fluorescence upon binding to fibrils ([38]). We identified 45 µM ThT as optimal concentration to study the kinetics of TauRD aggregation (SI Appendix, Fig. S1), in line with the literature ([39]).
Twenty µM TauRD + 5 µM heparin were incubated ± 45 µM ThT in 25 mM HEPES-KOH pH 7.4, 75 mM KCl/NaCl (37 °C). ThT fluorescence (440/485 nm) was recorded every 5 min for 24 h on a CLARIOstar® Plus; peptides were added as indicated. […]
Peptide synthesis and purification
The peptides were synthesized using a Liberty Blue Microwave-Assisted Peptide Synthesizer (CEM) with standard Fmoc chemistry and Oxyma/DIC as coupling reagents. The peptide concentrations were measured by UV spectroscopy. The peptides were labeled with 5(6)-carboxyfluorescein at their N’ termini. The peptides were cleaved from the resin with a mixture of 95% (v/v) trifluoroacetic acid (TFA), 2.5% (v/v) triisopropylsilane (TIS), 2.5% (v/v) triple distilled water (TDW) agitating vigorously for 3 hours at room temperature. The volume was decreased by N2 flux and the peptides precipitated by addition of 4 volumes of diethylether at -20 °C. The peptides were sedimented at -20 °C for 30 minutes, then centrifuged and the diethylether discarded. The peptides were washed three times with diethylether and dried by gentle N2 flux. The solid was dissolved in 1:2 volume ratio of acetonitrile (ACN):TDW, frozen in liquid Nitrogen and lyophilized.
The peptides were purified on a WATERS HPLC using a reverse-phase C18 preparative column with a gradient of ACN/TDW. The identity and purity of the peptides was verified by ESI mass spectrometry and Merck Hitachi analytical HPLC using a reverse-phase C8 analytical column.
Aggregation of 20 µM TauRD in 25 mM HEPES-KOH pH 7.4, 75 mM KCl, 75 mM
NaCl, ½ tablet/50 ml Protease Inhibitor, was induced by the addition 5 µM of heparin low molecular weight Impact of FibrilPaint peptides was assessed by adding 0.02, 0.2 or 2 µM of peptide.
Monitoring TauRD aggregation by thioflavin T (ThT) fluorescence
For monitoring the aggregation of TauRD by fluorescence, ThT was added to the aggregation mixture before addition of heparin. We used 45 µM ThT as standard condition, unless stated otherwise. […]. […]

Data set [4] deals with T2, TauRD fibrils. Description: FIDA (FibrilRuler Test): binding to TauRD fibrils. The settings on record: detection of Tau amyloid fibrils with FIDA; Yes/No; Suppl. Table S1.
Excerpt: (§10) Next, we screened the four FibrilPaint peptides for direct binding to TauRD fibrils. We developed an application of FIDA to determine the size of amyloid aggregates, called the FibrilRuler Test (Fig. 1B). FIDA is a recently established technique to measure size of protein complexes ([40], [41]). In FIDA, the detector records the fluorescence signal after passage of the sample through a long capillary. The sample passes a detector window, resulting in a size-dependent diffusion profile of the fluorescent compound. Smaller species diffuse faster and bigger ones slower, resulting in a narrow or broad dispersion of the fluorescent signal (Fig. 1B). Since FIDA readout relies on the physical diffusion properties of the sample, we can measure the hydrodynamic radius (Rh) of labeled species from the fluorescent signal ([42]–[44]). The Rh is a parameter corresponding to the size and shape of a molecule or a complex in solution. It is the radius of the sphere created by the tumbling particle. Rh values can be estimated from the structural coordinates, either by experimental methods or by predictions such as AlphaFold (SI Appendix, Table S2). For known structures, e.g., for many protein fibrils, an experimentally determined Rh value allows us to estimate the dimensions of the particle.
(§11) With this setup, we determined the Rh of FibrilPaint1 to 4 to be 1.7 nm each (SI Appendix, Table S1). The binding of the fluorescently labeled FibrilPaint peptide to protein fibrils increases the Rh value, as the peptide now tumbles together with the larger fibril (Fig. 1B). To measure the Rh of fibril complexes, we incubated preformed fibrils together with each of the four peptides in a 1:100 peptide:monomer ratio, using 200 nM peptide with fibrils made of 20 μM TauRD monomers.
(§12) Preformed or patient-derived fibrils (2 µM monomer) were mixed with 50 nM Fl-FibrilPaint1 and analyzed in capillary dissociation mode (25 °C, FIDA 1). […]
as §6
Target sequence in this assay (P10636 with tags, fused parts or gaps isoform P10636-8 DEL280-280): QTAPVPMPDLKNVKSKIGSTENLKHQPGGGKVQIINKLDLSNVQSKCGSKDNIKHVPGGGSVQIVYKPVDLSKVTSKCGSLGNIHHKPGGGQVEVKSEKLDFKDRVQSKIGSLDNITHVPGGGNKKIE

A short description of data set [5]: FIDA: Rh of peptide alone (unbound). The class given is physicochemical. As to conditions: peptide not bound to anything.
Excerpt: as §10, §11, §12, §6

In data set [6] the test system is Amyloid-β (Aβ) plaques. The settings on record: in words; cited from earlier work. The text has this: The formation of amyloid fibrils is one of the earliest pathological hallmarks of neurodegenerative diseases ([3], [6], [12]–[15]). […] In AD, Aβ aggregation outside the cell precedes Tau aggregation inside the cell ([4], [13], [18]).

T1 sequence (P10636 with tags, fused parts or gaps isoform P10636-8 DEL280-280): as above

For `CC(C)[C@H](NC(=O)[C@H](CCC(=O)O)NC(=O)[C@H](CCC(=O)O)NC(=O)[C@H](CO)NC(=O)CNC(=O)[C@H](CO)NC(=O)CNC(=O)[C@H](Cc1c[nH]cn1)NC(=O)[C@@H]1CCCN1C(=O)[C@H](Cc1c[nH]cn1)NC(=O)[C@H](Cc1c[nH]cn1)NC(=O)[C@H](Cc1c[nH]c2ccccc12)NC(=O)[C@@H]1CCCN1C(=O)[C@H](Cc1c[nH]c2ccccc12)NC(=O)[C@H](Cc1c[nH]c2ccccc12)NC(=O)[C@@H]1CCCN1C(=O)[C@H](CCCNC(=N)N)NC(=O)[C@H](CCCNC(=N)N)NC(=O)[C@H](Cc1c[nH]c2ccccc12)NC(=O)[C@H](Cc1c[nH]c2ccccc12)NC(=O)[C@@H]1CCCN1C(=O)c1ccc2c(c1)C(=O)OC21c2ccc(O)cc2Oc2cc(O)ccc21)C(=O)N[C@@H](CC(=O)O)C(=O)O` [FibrilPaint1] (5FAM-PWWRRPWWPWHHPHGSGSEEVD-OH), the values for the Kd in data set [1] and in data set [2] were above 10 µM and 1.6 µM, respectively.

As to “(Fl)-PWIRRPWWPWTTPTGSGSEEVD [FibrilPaint2, 22-residue fluorescein-labeled peptide]”, in data set [3], the “ThT end-plateau / emitted ThT signal” value is on record as “lower the end-plateau in a dose-dependent manner” and the Tht inhibition result is recorded as “Yes”. Moreover, the Fibril binding entry in data set [4] was “No”. Moreover, the “Hydrodynamic radius (Rh)” value in data set [5] is 1.7 nm.

“(Fl)-PWWDDPWWPWHHPHGSGSEEVD [FibrilPaint4, 22-residue fluorescein-labeled peptide]”: in data set [3], the “ThT end-plateau / emitted ThT signal” value was “lower the end-plateau in a dose-dependent manner” and the Tht inhibition result is “Yes”. Further, in data set [4], the Fibril binding entry is recorded as “No”. The “Hydrodynamic radius (Rh)” value in data set [5] amounted to 1.7 nm.

In the case of “(Fl)-PWWDDPWWPWTTPTGSGSEEVD [FibrilPaint3, 22-residue fluorescein-labeled peptide]”, in data set [3], the “ThT end-plateau / emitted ThT signal” value is recorded as “lower the end-plateau in a dose-dependent manner” and the Tht inhibition entry is “Yes”. For the same molecule, the Fibril binding entry in data set [4] is on record as “No”. Further, the “Hydrodynamic radius (Rh)” value in data set [5] stood at 1.7 nm.

B1: Lecanemab: antibody approved to target Amyloid-β (Aβ) plaques (antibody, chains of the INN, looked up, V domains shown)
VH: EVQLVESGGGLVQPGGSLRLSCSASGFTFSSFGMHWVRQAPGKGLEWVAYISSGSSTIYYGDTVKGRFTISRDNAKNSLFLQMSSLRAEDTAVYYCAREGGYYYGRSYYTMDYWGQGTTVTVSS
VL: DVVMTQSPLSLPVTPGAPASISCRSSQSIVHSNGNTYLEWYLQKPGQSPKLLIYKVSNRFSGVPDRFSGSGSGTDFTLRISRVEAEDVGIYYCFQGSHVPPTFGPGTKLEIK
As to B1, in data set [6], the clinical effect entry is reported as “modest” and the risks entry is recorded as “significant risks involved”.
